Consider 7 molecules from ChEMBL document CHEMBL1128710, “Synthesis of cluster galactosides with high affinity for the hepatic asialoglycoprotein receptor” (J Med Chem, 1995).

Where only a bound is given, the exact number is not on record here.

A short description of the first assay: Affinity towards Asialoglycoprotein receptor using in vitro competition assay for [125I]- ASOR binding to the parenchymal liver cells of rabbit. Set-up: species or system Oryctolagus cuniculus.
`COC(=O)CCCCC(=O)NCC(=O)NC(CO[C@@H]1O[C@H](CO)[C@H](O)[C@H](O)[C@H]1O)(CO[C@@H]1O[C@H](CO)[C@H](O)[C@H](O)[C@H]1O)CO[C@@H]1O[C@H](CO)[C@H](O)[C@H](O)[C@H]1O` returned an inhibitory constant (Ki) of 150 µM.

The nature of another assay: Affinity towards Asialoglycoprotein receptor using in vitro competition assay for [125I]- ASOR binding to the parenchymal liver cells of rat.
In turn, `COC(=O)CCCCC(=O)NCC(=O)NC(CO[C@@H]1O[C@H](CO)[C@H](O)[C@H](O)[C@H]1O)(CO[C@@H]1O[C@H](CO)[C@H](O)[C@H](O)[C@H]1O)CO[C@@H]1O[C@H](CO)[C@H](O)[C@H](O)[C@H]1O` had an inhibitory constant (Ki) above 390 µM.
The same measure, in the same setting: for `COC(=O)CCCCC(=O)NCC(=O)NC(COCOCCOCCOCCOCCO[C@H]1O[C@@H](CO)[C@@H](O)[C@@H](O)[C@@H]1O)(COCOCCOCCOCCOCCO[C@H]1O[C@@H](CO)[C@@H](O)[C@@H](O)[C@@H]1O)COCOCCOCCOCCOCCO[C@H]1O[C@@H](CO)[C@@H](O)[C@@H](O)[C@@H]1O` the value was 0.2 µM; for `CC(C)CCC[C@@H](C)[C@H]1CC[C@H]2[C@@H]3CC=C4C[C@@H](OC(=O)CCC(=O)NCC(=O)NC(CO[C@@H]5O[C@H](CO)[C@H](O)[C@H](O)[C@H]5O)(CO[C@@H]5O[C@H](CO)[C@H](O)[C@H](O)[C@H]5O)CO[C@@H]5O[C@H](CO)[C@H](O)[C@H](O)[C@H]5O)CC[C@]4(C)[C@H]3CC[C@]12C`, 14 µM.
Same read-out and setting: for `COC(=O)CCCCC(=O)NCC(=O)NC(COCOCCOCCO[C@@H]1O[C@H](CO)[C@H](O)[C@H](O)[C@H]1O)(COCOCCOCCO[C@@H]1O[C@H](CO)[C@H](O)[C@H](O)[C@H]1O)COCOCCOCCO[C@@H]1O[C@H](CO)[C@H](O)[C@H](O)[C@H]1O` the value was 11 µM; for `COC(=O)CCCCC(=O)NCC(=O)NC(COCOCCO[C@@H]1O[C@H](CO)[C@H](O)[C@H](O)[C@H]1O)(COCOCCO[C@@H]1O[C@H](CO)[C@H](O)[C@H](O)[C@H]1O)COCOCCO[C@@H]1O[C@H](CO)[C@H](O)[C@H](O)[C@H]1O`, 19 µM.
The same measure, in the same setting: for `COC(=O)CCCCC(=O)NCC(=O)NC(COCOCCCO[C@@H]1O[C@H](CO)[C@H](O)[C@H](O)[C@H]1O)(COCOCCCO[C@@H]1O[C@H](CO)[C@H](O)[C@H](O)[C@H]1O)COCOCCCO[C@@H]1O[C@H](CO)[C@H](O)[C@H](O)[C@H]1O` the value was 1.2 µM; for `CC(=O)N[C@@H]1[C@@H](O)[C@@H](O)[C@@H](CO)O[C@H]1O`, 870 µM.
